Literature values, collected in US20100323044A1, “ABNORMAL PROTEIN REMOVING METHOD” (FANCL CORPORATION, priority 2004, published 2010).

Conditions: assumed, J Nutr 134 (2004); broken down by intestinal bacteria into soyasapogenol B, then absorbed

SMILES: C[C@@H]1O[C@@H](O[C@H]2[C@H](O[C@H]3[C@H](O[C@H]4CC[C@@]5(C)[C@@H](CC[C@]6(C)[C@@H]5CC=C5[C@@H]7CC(C)(C)C[C@@H](O)[C@]7(C)CC[C@]56C)[C@@]4(C)CO)O[C@H](C(=O)O)[C@@H](O)[C@@H]3O)O[C@H](CO)[C@H](O)[C@@H]2O)[C@H](O)[C@H](O)[C@H]1O [soyasaponin I]
- absorption in the human intestines: not absorbed directly
